Test results: a melting point compilation (Tetko et al.; mined from patent text by program, amines drawn as free bases though some values may be those of a salt)

Compound	melting point [°C]
COc1ccc(C(=O)NNc2ccc(NC(=S)Nc3ccccc3)cc2)cc1	178
Clc1ccc(Cc2ccc(-c3ccccc3)cc2)cc1	96
Oc1cccc(-n2cnc(-c3ccccc3)c2)c1	195 to 197
CCCCCCC(Oc1ccc(C2=CCCCCCC2)cc1)C(=O)O (configuration not stated)	55 to 57
OCCCC(=C(c1ccccc1)c1ccc(O)cc1)c1ccccc1	157 to 163
CCOC(=O)C(NC(C)=O)C(=O)c1ccccc1 (configuration not stated)	63 to 64
CN1C(=O)CN=C(c2cccc(Cl)c2)c2cc(C(=O)c3ccc(Cl)cc3)ccc21	176
CCCCc1nc2c(N)nc3ccccc3c2n1CCCCNS(=O)(=O)c1cccc2c(N(C)C)cccc12	223 to 224
CC(=O)OCC1OC(n2cc(C)c(-n3cncn3)nc2=O)CC1N=[N+]=[N-] (configuration not stated)	143 to 145
O=C(Nc1ccc2c(c1)nc1n2CCC1)c1cc2cccnc2n1Cc1ccccc1	251 to 252
CC(C)(O)COCc1onc(-c2ccccc2)c1-c1ccc(S(N)(=O)=O)cc1	160 to 162
Cc1cc2c(=O)n3cc(C#N)ccc3nc2s1	256 to 258
c1ccc(CO[C@@H]2CCC[C@H]2Nc2nc(N3CCN(c4ccccc4)CC3)nc3c2SCC3)cc1	100 to 105
Cc1oc(-c2ccccc2)nc1COc1cc(COc2ncccc2C=O)on1	90 to 91
O=C(Nc1ccc(Br)cc1)N1CCN2CCC1CC2	228 to 231
CCCCN(CCCC(=O)O)C(=O)c1ccccc1	62 to 64
O/N=C(\Sc1ccccc1)C(F)(F)F	64 to 66
Cc1oc(-c2ccccc2)nc1COc1ccc(COC(=O)Cc2cccc(OCc3ccc(OCc4nc(-c5ccccc5)oc4C)cc3)c2)cc1	90 to 91
CONC(=O)Nc1ccc(-c2sc3c(c2CN(C)CCc2ccccn2)c(=O)n(-c2ccccn2)c(=O)n3Cc2c(F)cccc2F)cc1	194 to 196
CCCc1c(C(=O)C(C)C)c2ccc(C(N)=O)cc2n1Cc1c(Cl)cccc1Cl	208 to 209
C=CCc1ccc(C(NC(=O)OC(C)(C)C)C(=O)OC)cc1 (configuration not stated)	60.6 to 62
O=C(O)CCCOc1ccc(N2CCN(c3ccncc3)CC2)cc1[N+](=O)[O-]	219 to 220
Nc1ccccc1C(=O)C1CCC1	55

Compound	melting point [°C]
CCCCC(Cc1ccc(OCCNC(=O)c2ccc(-c3cccc(O)c3)cc2)cc1)C(=O)O (configuration not stated)	98 to 100
CCOC(=O)C(C#N)=CNc1nccc2c1CCCC2	116 to 120
NC(=O)c1ccnc(-c2csc(N=C(N)N)n2)c1	169 to 171
CC(C)CC1(CCCCN2CCc3sccc3C2)C(=O)Nc2ccccc21 (configuration not stated)	114 to 116
CC(=O)NC(=O)C(=O)c1ccccc1	124 to 125
CCOCc1nc2c(N)nc3ccccc3c2n1CCCc1cc(C)no1	163 to 164
CC(=O)OCC1=C(C(=O)OC(C)(C)C)N2C(=O)C(N)C2SC1 (configuration not stated)	111 to 112
CC(C)(C)c1ccc([N+]([O-])=S)cc1	40 to 43
Cc1ccc([N+](=O)[O-])c(C)c1CO	94.5 to 96.1
CC(C=CCC(C)(O)CO)C1CCC2C(O)CCCC12C (configuration not stated)	87 to 88
CCCCCCCCCCCCCCCCOC(=O)c1cnc(C(=O)OCCCCCCCCCCCCCCCC)c2ccccc12	80.7 to 81.4
N#Cc1c(N)cccc1Oc1ccccc1	66 to 67
CCSc1ccc(Cl)c(C#N)n1	46 to 48
OCCCCCCn1nc(-c2ccccc2)c(-c2ccccc2)c1-c1ccccc1	76 to 78
O=Cc1ccc2c(C=O)c[nH]c2c1	200 to 203
CCC(CC)OC(=O)c1ccc(C(=O)NS(=O)(=O)c2ccccc2)cn1	182 to 183
O=C(CC1CCN(CCn2c(=O)[nH]c3ccccc32)CC1)c1ccc(F)cc1	181
CC(=O)Oc1c(C)c(C)c2c(c1C)CC(C)(C=O)O2 (configuration not stated)	78 to 79
CC(C)(O)[C@H](N)c1ccccc1	49
CN(C)CCCNC(CC(=O)O)C(=O)OC1CCCCC1 (configuration not stated)	150 to 152
Cc1ccc(C(=O)c2ccncc2C(=O)O)cc1	230 to 231
Nc1sc(-c2ccccc2)c(CN(C2CCCCC2)C2CCCCC2)c1C(=O)c1ccc(Cl)cc1	201 to 203
CN1CCN(c2nc3sc4c(NCc5ccco5)ncnc4c3c3c2COC(C)(C)C3)CC1	166 to 168

More lines, now with the values ahead:

melting point [°C]	Compound
230 to 235	COc1cc2cc3c(Nc4ccc(Sc5nccn5C)c(Cl)c4)c(C#N)cnc3cc2cc1OCCCN1CCOCC1
192 to 194	CC(=O)OCc1nc2sc(S(N)(=O)=O)cc2c(=O)n1-c1ccccc1Cl
186 to 188	Nc1cc(Cl)nc(Cl)c1N
110 to 113	CCC(O)c1cc([N+](=O)[O-])cc(Br)c1Cl (configuration not stated)
74 to 77	CCOC(=O)C(C#N)C(=O)c1cccn1C (configuration not stated)
167 to 169	CCCC(=O)c1cnc2c(OC)cccc2c1Nc1ccc(OC(C)=O)cc1C
92 to 93	COC(=O)c1ccc(C#CC(O)c2ccc3c(c2)C(C)(C)CCC3(C)C)cc1O (configuration not stated)
134 to 136	CNC(=O)C(C)Oc1cc(-c2nn(C)c(C(F)(F)F)c2Cl)c(F)cc1Cl (configuration not stated)
77.5 to 78.5	CCOC(=O)C(=CNc1ccc(F)c(SCC)n1)C(=O)OCC
160 to 162	COC(=O)NN=C1CCCCC1=Cc1ccc(Cl)cc1
113 to 115	Cn1ccnc1Sc1c(Cl)cccc1Cl
152 to 154	COc1ccc2c(c1)Nc1cccc(SC)c1S2
53 to 54	CCCNS(=O)(=O)c1c(C)cc(C)cc1C
> 250	CCOC(=O)c1nc2c(=O)[nH]c3ccc(-n4ccnc4)cc3n2c1C
174 to 176	OC(c1ccccc1)(c1ccc(C(F)(F)F)cc1)c1ncc[nH]1 (configuration not stated)
254	C=CCN1CCN(C(=O)OC2C3=C(OCCS3)C(=O)N2c2ccc3ccc(Cl)nc3n2)CC1 (configuration not stated)
111 to 112	COC(=O)Cc1ccc2c(c1)C(=O)Cc1ccccc1C2
161 to 164	COC(=O)C(=CNc1ccc(F)cc1)C(=O)C=Cc1ccc(NC(C)=O)cc1
64 to 65	CC#CC(O)(c1ccc(C)cc1C)c1ccc(C)cc1C

melting point [°C]	Compound
133 to 134	CCOC(=O)C1=C(C)NC(c2cscn2)=NC1c1cccc(C)c1 (configuration not stated)
174 to 175	COc1cc2ncnc(N3CCN(C(=O)NCCc4ccc(Br)cc4)CC3)c2cc1OC
296	Nc1cc2[nH]c(=O)oc2cc1NC(=O)C(=O)N1CCC(Cc2ccccc2)CC1
102 to 103	Cc1cc2c(cc1OC(=S)N(C)C)C(C)(C)CCC2(C)C
103 to 105	CCOC(=O)CCc1ccc(C2COc3c(C)c(C)c(NC(=O)CC(C)(C)C)c(C)c32)cc1 (configuration not stated)
144 to 145	Cc1ccc(OCC(=O)c2ccc3c(c2)C(C)(C)CCC3(C)C)cc1O
103	CC(C)(C)C(O)C(Cn1cncn1)Oc1ccc(Cl)cc1 (configuration not stated)
152 to 155	O=Cc1csc(Nc2ccc(F)cc2)n1
179 to 182	CS(=O)(=O)c1ccc(-c2cnn(Cc3ccc(F)cc3F)c(=O)c2-c2ccc(F)cc2)cc1
> 250	NS(=O)(=O)c1cnc(-c2cn(-c3cc(-c4ccc(C(F)(F)F)cc4)cc(C(F)(F)F)n3)cn2)s1
162 to 163	CC(C)c1nc(CN2C(=O)C3(COc4cc5c(cc43)OCO5)c3cccc(C#N)c32)cs1 (configuration not stated)
214 to 215	COc1cc2ncc(C#N)c(Cl)c2cc1[N+](=O)[O-]
205 to 208	O=C(O)CCC(=O)c1ccc(Oc2ccc(NC(=O)c3ccc(Cl)c(Cl)c3)cc2F)cc1
137 to 138	CCN(CC)CCNC(=O)COc1cccc(-n2nc(-c3ccc(F)cc3)c3cccnc32)c1
> 300	CCn1cnc2c(=O)[nH]c(N)nc21
52.5 to 54	CC(C)C1C(=O)N(Cc2ccccc2)S(=O)(=O)N1C (configuration not stated)
217 to 219	Cc1ccnc(C(=O)c2[nH]c3cc(Cl)ccc3c2NC(=O)C(C)(C)O)c1
164 to 166	O=C1C(=CNCCO)Cc2c(Cl)cccc21
191 to 192	Cc1oc(-c2ccco2)nc1COc1ccc(COc2nn(Cc3ccccc3)cc2C(=O)O)cc1Cl

melting point [°C]	Compound
154	CC(=O)Nc1ccc(C=O)c(F)c1F
195 to 196	Cc1ccc(-c2nc(CO[C@H]3CCC[C@@H](C(=O)N[C@H](C(=O)O)C(C)C)C3)c(C)o2)cc1
180 to 183	COC(=O)c1cc(N)c(F)c(Cl)n1
188 to 189	COc1cc(NS(=O)(=O)c2ccc3c(ccn3C)c2)cc(OC)c1OC
174 to 176	CCC(C#N)=C1CCN(c2ccc(N3C[C@H](CNC(C)=S)OC3=O)cc2F)CC1
78 to 80	COCOc1cc([N+](=O)[O-])c(F)cc1Cl
118 to 120	CC(C)(C)c1cc(SCCc2nncs2)cc(C(C)(C)C)c1O
67 to 68	COc1ccc(C(C)=NOCc2ccc([N+](=O)[O-])cc2)cc1F
272 to 274	Cn1c(=O)[nH]c2ncccc2c1=O
214 to 216	NS(=O)(=O)c1cc(C(=O)O)cc(SCc2ccco2)c1Oc1ccccc1
273 to 276	O=C(O)c1cnc2c3ccccc3c(O)cn2c1=O
173 to 175	Cc1nc2cccc(OCC(C)(C)NC(=O)CN3CCOCC3)c2c(N)c1C(=O)O
> 250	CC(=O)c1cnn(O)c1-c1ccc(C(=O)O)cc1C
191 to 194	CNC(=O)NCCn1c(-c2ccc(N3CCOCC3)cc2)csc1=Nc1ccc(F)cc1
130 to 131	Cn1cc(Oc2ccccc2)c(=O)c(-c2ccc(Cl)c(C(F)(F)F)c2)c1
275	CC(=O)Nc1ncc(/C=C/c2ncc(C(C)(C)C)o2)s1
37 to 37.5	CC(=O)OCCCc1nc(-c2ccc(Cl)cc2)co1
233	Cc1cc(Nc2ccnc(Nc3ccc(S(=O)(=O)N4CCC(O)(CN(C)C)CC4)cc3)n2)ccc1F
